± gives the expanded uncertainty stated by the source.
Test: excess molar enthalpy (molar enthalpy of mixing); xn = mol fraction of the nth substance listed
Conditions: 303.15 K, 101 kPa, Liquid, Calvet calorimetry

| Compound | excess molar enthalpy (x1 = 0.2481) | excess molar enthalpy (x1 = 0.5) | excess molar enthalpy (x1 = 0.7576) | excess molar enthalpy (x2 = 0.247) | excess molar enthalpy (x2 = 0.4944) | excess molar enthalpy (x2 = 0.7685) |
| --- | --- | --- | --- | --- | --- | --- |
| c1ccccc1 [benzene] + CCCCCCC | 0.145 ± 0.00167 kcal/mol | 0.221 ± 0.00239 kcal/mol | 0.186 ± 0.0021 kcal/mol | – | – | – |
| c1ccccc1 [benzene] + Cc1ccccc1 | – | – | – | 0.013 ± 0.000359 kcal/mol | 0.017 ± 0.000406 kcal/mol | 0.0114 ± 0.000359 kcal/mol |

From the NIST ThermoML archive (doi:10.1016/j.tca.2013.01.028)
